According to patent US12037324B2, “Biarylmethyl heterocycles” (Université de Montréal, priority 2016, dated 2024):
Counter-ions that a name gives are not always drawn.

Experiments:
Type in all cases: cell-based
hAT1R [1] = target: T1, hAT1R (Homo sapiens, UniProt P30556); test: BRET β-arrestin2 biosensor assay, higher receptor expression (hAT1R 5 ng/well), HEK293 cells; conditions: for EC50: High AT1R Expression
T1 sequence (P30556 1-359): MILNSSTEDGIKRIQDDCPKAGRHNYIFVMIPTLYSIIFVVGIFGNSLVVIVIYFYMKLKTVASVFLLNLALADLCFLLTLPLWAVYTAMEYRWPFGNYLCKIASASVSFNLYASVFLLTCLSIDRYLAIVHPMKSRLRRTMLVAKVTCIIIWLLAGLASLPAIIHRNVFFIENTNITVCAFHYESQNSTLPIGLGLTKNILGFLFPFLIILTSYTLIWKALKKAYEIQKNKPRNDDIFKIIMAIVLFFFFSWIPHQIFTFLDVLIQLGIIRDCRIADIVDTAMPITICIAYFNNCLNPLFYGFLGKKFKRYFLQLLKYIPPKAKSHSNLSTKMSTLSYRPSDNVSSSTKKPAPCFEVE

hAT1R [2] = target: T1, hAT1R; test: BRET Gq biosensor assay, agonist response, HEK293 cells; conditions: section of the 42nd table directly before the BRET P63 section
Experimental: BRET β-arrestin2 and Gq Activation Assays
In another aspect of the invention, association of the ATIR with signaling proteins is assessed using bioluminescence resonance energy transfer assays (Stephane Angers, Ali Salahpour et al. 2002). This technology measures the association between bioluminescent and fluorescent protein tags.
Several of the plasmid constructs used in BRET experiments were previously described. Briefly, the coding sequence of β-arrestin2 was fused to Renilla luciferase II to generate β-arrestin2-Rluc (Quoyer, Janz et al. 2013). The membrane targeting motif from K-Ras, CAAX motif (GKKKKKKSKTKCVIM), was fused to Renilla GFP to create rGFP-CAAX plasmid (Namkung Y et al., Nat Commun (2016) 7, 12178). The Renilla luciferase II was inserted in the Gaq protein to generate Gaq-Rluc (Breton, Sauvageau et al. 2010). The Gγ1 protein was tagged with GFP10 to obtain GFP-Gyl, using the same strategy described previously for GFP-Gy2 (Gales, Rebois et al. 2005). The Gaq binding domain of the p63RhoGEF protein (amino acids 295-502) was fused to Renilla luciferase II to create P63-Rluc. Finally, the hAT1R plasmid construct encoding the receptor was generated by optimizing the coding sequence of human angiotensin II receptor (GeneOptimizer from ThermoFisher), and adding an artificial cleavable signal peptide from bovine prolactin ([…]) in N-terminus of the receptor to increase cell surface expression.
Gq Biosensor Assay HEK293 cells were cultured in DMEM supplemented with Penicillin-Streptomycin and 10% fetal bovine serum. Two days before the BRET experiment, HEK293 cells were transfected with hAT1R expression plasmid (200 ng/well) as well as Gaq-Rluc (100 ng/well), Gβ1 (375 ng/well) and GFP-Gγ1 (625 ng/well), using linear polyethylenimine 25 kDa (PEI) at a PEI:DNA ratio of 3:1. Transfected cells were directly seeded in 96-well plates, at a density of 35 000 cells per well, and maintained in culture for the next 48 h.
BRET experiments were carried out subsequently using the following procedures: cells were washed once with Tyrode's buffer (137 mM NaCl, 1 mM CaCl2, 0.9 mM KCl, […], 3.6 mM NaH2PO4, 5.5 mM glucose, 12 mM NaHCO3, and 25 mM HEPES, pH 7.4) and 90 μl of Tyrode's buffer was added to each well. Cells were equilibrated in their new buffer at room temperature for at least 30 minutes. Following the equilibration period, the coelenterazine substrate was first added to the cells, 10 μl per well of a 10×solution (prolume purple coelenterazine at a final concentration of 2 μM), immediately followed by compound addition using the HP D300 digital dispenser from Tecan (10 singlicate concentrations). Cells were incubated for 5 min at room temperature and BRET readings were then collected using a Synergy Neo Multi-Mode reader from BioTek with BRET2 filters 410/515, to record agonist response. […] A second reading was collected 5 min after this second addition, using the Synergy Neo Multi-Mode reader from BioTek with BRET2 filters 410/515, to record antagonist response. The BRET signal was determined by calculating the ratio of the light emitted by GFP (515 nm) over the light emitted by the Rluc (410 nm). To analyze agonist response, BRET signal values were converted into percentage of activation using the non-stimulated control as 0% and AngII maximal response as 100%. Sigmoidal concentration-response curves were generated with those normalized values using a 4-parameter logistic equation (IDBS ActivityBase software), to determine EC50 of the different compounds. In the case of antagonist response analysis, BRET signal values were converted into percentage of inhibition using the fixed dose of AngII (corresponding to the EC50) as 0% and non-stimulated control as 100%. Sigmoidal concentration-response curves were generated with those normalized values using a 4-parameter logistic equation (IDBS ActivityBase software), to determine IC50 of the different compounds.

AGTR1 = target: T2, AGTR1 (Homo sapiens, UniProt P30556); test: DiscoveRx β-arrestin2 recruitment assay (enzyme complementation, Pathunter CHO-K1 AGTR1 β-arrestin cell line); conditions: DiscoveRx β-arrestin2 recruitment; for DiscoveRx β-arrestin2 Ymax (%): maximal response
T2 construct: host or cells: Pathunter CHO-K1 AGTR1 β-arrestin cell line (CHO-K1)
T2 sequence (P30556 1-359): T1 sequence (P30556 1-359)
Procedure, shortened: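 Chemiluminescent enzyme-complementation read-out of β-arrestin2 recruitment to AGTR1 in engineered CHO-K1 cells after 90 min compound exposure at 37° C. Values are 4-parameter logistic EC50s in agonist mode, IC50s in antagonist mode, with efficacy relative to the maximal All response.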

Row | Structure (SMILES) | BRET β-Arrestin2 High AT1R Expression Ymax (%) (hAT1R [1]) | EC50 (hAT1R [1]) | EC50 (hAT1R [2]) | EC50 (AGTR1) | DiscoveRx β-arrestin2 Ymax (%) (AGTR1)
1 | CCCCC(=O)N(Cc1ccc(-c2cc(-c3ccc(NC(C)=O)cc3)ccc2-c2nn[nH]n2)cc1)C1(C(=O)O)CCCCC1 [Example 291] | 9.6% | 1650 nM | > 100000 nM | 134 nM | 10.0%
2 | CCCCC(=O)N(Cc1ccc(-c2cc(-c3ccc4ncccc4c3)ccc2-c2nn[nH]n2)cc1)C1(C(=O)O)CCCCC1 [Example 292] | 36.5% | 72.2 nM | > 100000 nM | 177 nM | 32.1%
3 | CCOc1nc2cccc(C(=O)O)c2n1Cc1ccc(-c2cc(N3CCCC(F)(F)C3)ccc2C(=O)O)cc1 [Example 315] | 29.1% | 1840 nM | > 100000 nM | 242 nM | 21.5%
4 | CCOc1nc2cccc(C(=O)OC)c2n1Cc1ccc(-c2cc(-c3ccccc3)ccc2-c2noc(=O)[nH]2)cc1 [Example 316, methyl 2-ethoxy-1-((6′-(5-oxo-4,5-dihydro-1,2,4-oxadiazol-3-yl)-[1,1′:3′,1″-terphenyl]-4-yl)methyl)-1H-benzo[d]imidazole-7-carboxylate] | 97.5% | 46.2 nM | > 100000 nM | 53 nM | 51.6%
5 | O=C(O)c1cccc2nc(O)n(Cc3ccc(-c4cc(-c5ccccc5)ccc4-c4nn[nH]n4)cc3)c12 [Example 317] | 39.8% | 319 nM | 17100 nM | 87.2 nM | 51.5%
6 | CCOc1nc2cccc(C(=O)O)c2n1Cc1ccc(-c2cc(-c3cccnc3OC)ccc2C(=O)O)cc1 [Example 318] | 93.9% | 132 nM | 552 nM | 47.5 nM | 54.6%
7 | CCOc1nc2cccc(C(=O)O)c2n1Cc1ccc(-c2cc(-c3ccc(C(=O)N(C)C)cc3)ccc2C(=O)O)cc1 [Example 320] | 86.8% | 173 nM | > 100000 nM | 40.7 nM | 55.7%
8 | CCOc1nc2cccc(C(=O)O)c2n1Cc1ccc(-c2cc(-c3ccc(C(=O)N(C)C)cc3)ccc2-c2noc(=O)[nH]2)cc1 [Example 321] | 86.7% | 108 nM | 47.9 nM | 56.8 nM | 83.4%
9 | CCOc1nc2cccc(C(=O)O)c2n1Cc1ccc(-c2cc(-c3cccnc3OC)ccc2-c2noc(=O)[nH]2)cc1 [Example 329] | 91.4% | 2.8 nM | 31.5 nM | 7.1 nM | 77.6%
10 | CCCCc1ncc(C(=O)O)n1Cc1ccc(-c2cc(-c3ccccc3)ccc2-c2nn[nH]n2)cc1 [Example 345, 1-((6′-(2H-tetrazol-5-yl)-[1,1′:3′,1″-terphenyl]-4-yl)methyl)-2-butyl-1H-imidazole-5-carboxylic acid, TFA salt] | 92.0% | 17.9 nM | 12.5 nM | 18.1 nM | 44.8%
11 | CCCCc1ncc(C(=O)N2CCCC2)n1Cc1ccc(-c2cc(-c3ccccc3)ccc2-c2nn[nH]n2)cc1 [Example 347] | 48.8% | 172 nM | 242 nM | 57.2 nM | 26.8%
12 | CCCCc1ncc(C(=O)NCCO)n1Cc1ccc(-c2cc(-c3ccccc3)ccc2-c2nn[nH]n2)cc1 [Example 348] | 85.4% | 34.3 nM | 89.2 nM | 7.3 nM | 50.9%
13 | CCCCc1ncc(C(=O)Nc2nc(C)cs2)n1Cc1ccc(-c2cc(-c3ccccc3)ccc2-c2nn[nH]n2)cc1 [Example 349] | 67.6% | 117 nM | 174 nM | 69.2 nM | 24.8%
14 | CCCCc1ncc(C(=O)NCCC(C)(C)O)n1Cc1ccc(-c2cc(-c3ccccc3)ccc2-c2nn[nH]n2)cc1 [Example 350] | 94.3% | 15.6 nM | 25.3 nM | 8.3 nM | 47.0%
15 | CCCCc1ncc(C(=O)NC2CC3(CCC3)C2)n1Cc1ccc(-c2cc(-c3ccccc3)ccc2-c2nn[nH]n2)cc1 [Example 351] | 89.6% | 38.9 nM | 81.1 nM | 18 nM | 45.4%
16 | CCCCc1ncc(C(=O)NC(C)(C)C)n1Cc1ccc(-c2cc(-c3ccccc3)ccc2-c2nn[nH]n2)cc1 [Example 352] | 62.2% | 290 nM | 1180 nM | 234 nM | 35.7%
17 | CCCCc1ncc(C(=O)Nc2ccncc2)n1Cc1ccc(-c2cc(-c3ccccc3)ccc2-c2nn[nH]n2)cc1 [Example 353] | 49.1% | 65.5 nM | 566 nM | 55 nM | 22.4%
18 | CCCCc1ncc(C(=O)NC2CCCCC2)n1Cc1ccc(-c2cc(-c3ccccc3)ccc2-c2nn[nH]n2)cc1 [Example 354] | 99.5% | 19.3 nM | 45.5 nM | 59.9 nM | 48.3%
19 | CCCCc1ncc(C(=O)NCc2cccnn2)n1Cc1ccc(-c2cc(-c3ccccc3)ccc2-c2nn[nH]n2)cc1 [Example 355] | 92.5% | 23.3 nM | > 1000 nM | 8.6 nM | 42.4%
20 | CCCCc1ncc(C(=O)NCc2nccs2)n1Cc1ccc(-c2cc(-c3ccccc3)ccc2-c2nn[nH]n2)cc1 [Example 356] | 84.7% | 17.7 nM | 36.7 nM | 27.3 nM | 41.5%
21 | CCCCc1ncc(C(=O)NCCC2CC2)n1Cc1ccc(-c2cc(-c3ccccc3)ccc2-c2nn[nH]n2)cc1 [Example 357] | 72.5% | 23.4 nM | 46.3 nM | 19.6 nM | 41.8%
